Assay results published in patent US10363257B2 (ZENITH EPIGENETICS LTD., priority 2013, dated 2019).

Legend:
[1] = molecular target: T1, Brd4 bromodomain 1 (BRD4(1)) (Homo sapiens, UniProt O60885); assay: Inhibition of tetra-acetylated histone H4 binding to Brd4 bromodomain 1 (TR-FRET); conditions: tetra-acetylated histone H4 peptide, first bromodomain of Brd4
T1 construct: made in house; host or cells: E. coli BL21(DE3)
Summary of the method: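 His-tagged BRD4(1) from E. coli (200 nM) with biotinylated tetra-acetylated H4 peptide (25-50 nM), Eu-cryptate streptavidin and XL665 anti-His, in HEPES pH 7.4/phosphate/KF buffer, 0.2% DMSO. After 2 h at room temperature, TR-FRET 665/620 nm ratio read; IC50 from dose-response curves.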

[2] = test system: c-myc; assay: Inhibition of c-myc expression (mRNA, real-time PCR) in MV4-11 cells; assay type: cell-based; conditions: Human AML MV4-11 cells, 3 h, cMYC mRNA
Summary of the method: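 MV4-11 cells treated 3 h at 37° C with increasing compound concentrations or 0.1% DMSO, in triplicate. cMYC mRNA quantified by one-step TaqMan real-time PCR, Ct normalized to internal control (Cyclophilin primers used), fold expression relative to control.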

[3] = test system: human AML MV-4-11 cells; assay: Inhibition of cell proliferation in MV4-11 cells (CellTiter Aqueous One); assay type: cell-based; conditions: for IC50: MV4-11, 72 h; for Cell Proliferation activity: 72 h
Summary of the method: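 Exponentially growing MV-4-11 cells (5×10^4/well) were treated immediately with two-fold dilutions of compound from 30 μM to 0.2 μM, in triplicate, for 72 h at 37° C, 5% CO2. Viability was measured by MTS absorbance at 490 nm after 3–4 h. Proliferation relative to DMSO after blank correction gave IC50.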

[4] = test system: hIL-6 mRNA; assay: Inhibition of hIL-6 mRNA transcription in LPS-stimulated U937 cells; assay type: cell-based; conditions: Homo sapiens, U-937; PMA-differentiated U937 cells, 1 h pretreatment, 1 ug/mL LPS stimulation, 3 h; read-out: IL-6 activity (Inhibition of hIL-6 mRNA Transcription)
Protocol: In this example, hIL-6 mRNA in tissue culture cells was quantitated to measure the transcriptional inhibition of hIL-6 when treated with a compound of the invention.
Human leukemic monocyte lymphoma U937 cells (CRL-1593.2) were plated at a density of 3.2×10^4 cells per well in a 96-well plate in 100 μL RPMI-1640 containing 10% FBS and penicillin/streptomycin, and differentiated into macrophages for 3 days in 60 ng/mL PMA ([…]) at 37° C. in 5% CO2 prior to the addition of compound. The cells were pretreated for 1 h with increasing concentrations of test compound in 0.1% DMSO prior to stimulation with 1 ug/mL lipopolysaccharide from Escherichia coli. Triplicate wells were used for each concentration. The cells were incubated at 37° C., 5% CO2 for 3 h before the cells were harvested. At time of harvest, media was removed and cells were rinsed in 200 μL PBS. Cells were harvested using the mRNA Catcher PLUS kit according to manufacturer's instructions. The eluted mRNA was then used in a one-step quantitative real-time PCR reaction using components of the RNA UltraSense™ One-Step Kit (Life Technologies) together with Applied Biosystems TaqMan® primer-probes for hIL-6 and Cyclophilin. Real-time PCR plates were run on a VIa™ 7 real time PCR machine (Applied Biosystems), data was analyzed, normalizing the Ct values for hIL-6 to an internal control, prior to determining the fold expression of each sample, relative to the control.

SMILES	IC50 [1] [nM]	IC50 [2] [nM]	IC50 [3] [nM]	IC50 [4] [nM]	Cell Proliferation activity [3]
Cc1noc(C)c1-c1ccc2[nH]c(=O)n(Cc3ccccc3)c2n1 [Example Compound 2, 3-Benzyl-5-(3,5-dimethylisoxazol-4-yl)-1H-imidazo[4,5-b]pyridin-2(3H)-one]	≤ 300	3000 to 30000	300 to 3000	300 to 3000	
Cc1noc(C)c1-c1cnc2nc(N3CCC3)n(CC3CCC3)c2c1 [compound 211, 4-(2-(azetidin-1-yl)-1-(cyclobutylmethyl)-1H-imidazo[4,5-b]pyridin-6-yl)-3,5-dimethylisoxazole]	≤ 300	300 to 3000	≤ 300	≤ 300	
Cc1noc(C)c1-c1cc(N)c2nc(C)n(CC3CC3)c2c1 [compound 75, 1-(cyclopropylmethyl)-6-(3,5-dimethylisoxazol-4-yl)-2-methyl-1H-benzo[d]imidazol-4-amine]	≤ 300	300 to 3000	300 to 3000	300 to 3000	
Cc1noc(C)c1-c1ccc2c(c1)N(Cc1ccccc1)C(=O)NC2 [Example Compound 12, 1-Benzyl-7-(3,5-dimethylisoxazol-4-yl)-3,4-dihydroquinazolin-2(1H)-one]	≤ 300	300 to 3000	300 to 3000	300 to 3000	
Cc1noc(C)c1-c1cnc2cnn(Cc3ccsc3)c2c1 [compound 98, 3,5-dimethyl-4-(1-(thiophen-3-ylmethyl)-1H-pyrazolo[4,3-b]pyridin-6-yl)isoxazole]	300 to 3000	300 to 3000	300 to 3000	300 to 3000	
Cc1noc(C)c1-c1ccc2oc(=O)n(Cc3ccccc3)c2c1 [Example Compound 6, 3-Benzyl-5-(3,5-dimethylisoxazol-4-yl)benzo[d]oxazol-2(3H)-one]	300 to 3000	300 to 3000	300 to 3000	300 to 3000	
Cc1noc(C)c1Nc1cnc2nc(C)n(Cc3ccccc3)c2c1 [compound 155, N-(1-benzyl-2-methyl-1H-imidazo[4,5-b]pyridin-6-yl)-3,5-dimethylisoxazol-4-amine]	≤ 300	3000 to 30000		300 to 3000	Not active
Cc1noc(C)c1-c1cnc2ccn(Cc3ccccc3)c2c1 [compound 71, 4-(1-benzyl-1H-pyrrolo[3,2-b]pyridin-6-yl)-3,5-dimethylisoxazole]	≤ 300	300 to 3000	300 to 3000	300 to 3000	
CCOc1nc2c(N)cc(-c3c(C)noc3C)cc2n1Cc1ccccc1 [Example Compound 17, 1-benzyl-6-(3,5-dimethylisoxazol-4-yl)-2-ethoxy-1H-benzo[d]imidazol-4-amine]	≤ 300	≤ 300	300 to 3000	300 to 3000	
CNc1nc2c(N)cc(-c3c(C)noc3C)cc2n1Cc1ccccc1 [compound 151, 1-benzyl-6-(3,5-dimethylisoxazol-4-yl)-N2-methyl-1H-benzo[d]imidazole-2,4-diamine]	≤ 300	≤ 300	≤ 300	≤ 300	
Cc1noc(C)c1-c1cc([N+](=O)[O-])c2nc(C)n(CC3CCCC3)c2c1 [compound 117, 4-(1-(cyclopentylmethyl)-2-methyl-4-nitro-1H-benzo[d]imidazol-6-yl)-3,5-dimethylisoxazole]	≤ 300	≤ 300	≤ 300	≤ 300	
Cc1noc(C)c1-c1cnc2c(Br)cn(Cc3ccccc3)c2c1 [Example Compound 34, 4-(1-benzyl-3-bromo-1H-pyrrolo[3,2-b]pyridin-6-yl)-3,5-dimethylisoxazole]	≤ 300	300 to 3000	300 to 3000	300 to 3000	
Cc1noc(C)c1-c1cnc2ccn(Cc3ccc(F)cc3)c2n1 [Example Compound 50, 4-(5-(4-fluorobenzyl)-5H-pyrrolo[2,3-b]pyrazin-3-yl)-3,5-dimethylisoxazole]	≤ 300	3000 to 30000	3000 to 30000	300 to 3000	
CNc1nc2c([N+](=O)[O-])cc(-c3c(C)noc3C)cc2n1Cc1ccccc1 [compound 149, 1-benzyl-6-(3,5-dimethylisoxazol-4-yl)-N-methyl-4-nitro-1H-benzo[d]imidazol-2-amine]	≤ 300	≤ 300	300 to 3000	≤ 300	
Cc1noc(C)c1-c1cnc2c(Cl)cn(Cc3ccccc3)c2c1 [compound 89, 4-(1-benzyl-3-chloro-1H-pyrrolo[3,2-b]pyridin-6-yl)-3,5-dimethylisoxazole]	≤ 300	300 to 3000	300 to 3000	300 to 3000	
CCNc1nc2ncc(-c3c(C)noc3C)cc2n1CC1CC1 [compound 131, 1-(cyclopropylmethyl)-6-(3,5-dimethylisoxazol-4-yl)-N-ethyl-1H-imidazo[4,5-b]pyridin-2-amine]	≤ 300	300 to 3000	300 to 3000	300 to 3000	
Cc1noc(C)c1-c1cc(C#N)c2nc(C)n(Cc3ccccc3)c2c1 [compound 85, 1-benzyl-6-(3,5-dimethylisoxazol-4-yl)-2-methyl-1H-benzo[d]imidazole-4-carbonitrile]	≤ 300	≤ 300		300 to 3000	
Cc1noc(C)c1-c1cnc2nc(C)n(CC3CC3)c2c1 [Example Compound 63, 4-(1-(cyclopropylmethyl)-2-methyl-1H-imidazo[4,5-b]pyridin-6-yl)-3,5-dimethylisoxazole]	300 to 3000	3000 to 30000		300 to 3000	
Cc1noc(C)c1-c1cnc2c(c1)ncn2Cc1ccc(C(F)(F)F)cc1 [Example Compound 40, 3,5-dimethyl-4-(3-(4-(trifluoromethyl)benzyl)-3H-imidazo[4,5-b]pyridin-6-yl)isoxazole]	300 to 3000			3000 to 30000	Not active
Cc1noc(C)c1-c1nc(N)c2ncn(Cc3ccccc3)c2n1 [Example Compound 1, 9-Benzyl-2-(3,5-dimethylisoxazol-4-yl)-9H-purin-6-amine]	300 to 3000			300 to 3000	Not active
Cc1noc(C)c1-c1cc([N+](=O)[O-])c2c(c1)n(Cc1ccccc1)c(=O)n2C [compound 150, 1-benzyl-6-(3,5-dimethylisoxazol-4-yl)-3-methyl-4-nitro-1H-benzo[d]imidazol-2(3H)-one]	≤ 300			300 to 3000	Not active
Cc1noc(C)c1-c1cc(N)c2c(c1)n(Cc1ccccc1)c(=O)n2C [compound 162, 4-amino-1-benzyl-6-(3,5-dimethylisoxazol-4-yl)-3-methyl-1H-benzo[d]imidazol-2(3H)-one]	≤ 300		≤ 300	≤ 300	
Cc1noc(C)c1-c1cnc2ncn(Cc3ccc(C(F)(F)F)cc3)c2c1 [Example Compound 41, 3,5-dimethyl-4-(1-(4-(trifluoromethyl)benzyl)-1H-imidazo[4,5-b]pyridin-6-yl)isoxazole]	≤ 300		300 to 3000	3000 to 30000	
Cc1noc(C)c1-c1cnc2nc(C)n(Cc3ccc(C#N)cc3)c2c1 [compound 70, 4-((6-(3,5-dimethylisoxazol-4-yl)-2-methyl-1H-imidazo[4,5-b]pyridin-1-yl)methyl)benzonitrile]	≤ 300		3000 to 30000	300 to 3000	
Cc1nc2ncc(-c3ccnn3C)cc2n1Cc1ccccc1 [compound 154, 1-benzyl-2-methyl-6-(1-methyl-1H-pyrazol-5-yl)-1H-imidazo[4,5-b]pyridine]	≤ 300		3000 to 30000	3000 to 30000	
Cc1noc(C)c1-c1ccc2[nH]cc(Nc3ccccc3)c2n1 [Example Compound 23, 5-(3,5-dimethylisoxazol-4-yl)-N-phenyl-1H-pyrrolo[3,2-b]pyridin-3-amine]	300 to 3000		3000 to 30000	300 to 3000	
Cc1noc(C)c1-c1cnc2ncn(Cc3ccc(Cl)cc3)c2c1 [Example Compound 43, 4-(1-(4-chlorobenzyl)-1H-imidazo[4,5-b]pyridin-6-yl)-3,5-dimethylisoxazole]	≤ 300		300 to 3000	300 to 3000	
